In patent US7781472B2, “Therapy for the treatment of disease” (TheraVida, Inc., priority 2005, dated 2010):

Assays:
[1] = tested on: healthy human subject; assay: Stimulated saliva flow, case study of oxybutynin and pilocarpine alone and combined (Example 4); assay type: in vivo; conditions: FIG. 1; for amount of saliva flow collected over 2 minute periods after dosing (in words): single agent alone (oxybutynin HCl 5 mg; pilocarpine HCl), single healthy subject, 8 hour period; for time at which saliva flow reached the pre-dose level: single agent alone, post-dosing
Method: (§1) The following measurements are made just prior to and at frequent intervals for up to 6 hours post dose: • Salivary flow is determined by chewing Parafilm for 2 minutes • Dry mouth is determined by VAS • Urine volume/void and frequency over 6 hours post dose is measured • Blood samples are taken for pharmacokinetics at pre-dose, and at 0.5, 1, 2, 3, 4, and 6 hours post dose • Food and water intake are standardized over the 6 hour period
In this study, the effect of oxybutynin, pilocarpine, the combination of the two, and placebo was measured in six separate, yet identical, studies in a single individual.
Effect of Oxybutynin—A healthy human subject was given a 5 mg dose of oxybutynin HCl and the amount of salivation was measured with time over an 8 hour period. […]

[2] = tested on: healthy human subject; assay: Stimulated salivary flow, case study of oxybutynin and cevimeline alone and combined (Example 5); assay type: in vivo; conditions: for Amount of Saliva Collecetd over 2 min: cevimeline 30 mg and/or oxybutynin 5 mg oral, single subject, in g; for amount of saliva flow collected over 2 minute periods after dosing (in words) / time at which saliva flow reached the pre-dose level: single agent alone (oxybutynin HCl 5 mg; cevimeline 30 mg)
Method: In this study, the effect of oxybutynin, cevimeline, the combination of the two, and placebo was measured in separate studies in a single individual.
Effect of Oxybutynin—A healthy human subject was given a 5 mg dose of oxybutynin HCl and the amount of salivation was measured with time over an 8 hour period. As shown in FIG. 5 (●, circle), the amount of saliva flow collected over 2 minutes periods decreased after dosing and the saliva flow remained low after 3 hrs. The amount of saliva flow started increasing after 3 hrs and continued increasing reaching the pre-dose level after 8 hrs post-dosing. The data generated in this study is consistent with the literature data.
Effect of Cevimeline—In a separate human study the effect of administering 30 mg of cevimeline was evaluated in a healthy human subject to ensure that cevimeline indeed increases salivary gland flow. […] The decrease in saliva flow continued until it reached about the normal saliva flow and pre-dosing level after about 6 hrs.
Effect of Combination of Oxybutynin and Cevimeline—In a separate human study, the combination of oxybutynin and cevimeline was administered to a healthy human subject. To the subject 5 mg of oxybutynin followed simultaneously by 30 mg of cevimeline, with no time delay, was administered. Saliva flow was measured as before. Results are shown in FIG. 5 (▪, square), where the combination is referred to as THVD-102.

[3] = Plasma concentration of oxybutynin after 5 mg oxybutynin alone or followed by 5 mg pilocarpine, four way crossover clinical trial; assay type: in vivo, human; conditions: 5 mg pilocarpine 30 min after 5 mg oxybutynin
Method: as §1
The study is a double blind, randomized, placebo-controlled, with 4 sequences (4 doses over 4 weeks) with the drugs being administered orally as a single dose. There is a One-week washout between study days. […]
Plasma Concentration of Oxybutynin—In a separate study, the plasma concentration of oxybutynin was measured in two groups of subjects: one group received 5 mg of oxybutynin alone and another group received 5 mg of oxybutynin followed by 5 mg pilocarpine after 30 min. The plasma concentrations were measured before the administration of oxybutynin and in hours 1, 2, 3, 4, and 6 after its administration. […]

[4] = tested on: healthy human subject; assay: Stimulated saliva flow, case study of tolterodine and pilocarpine (Example 6); assay type: in vivo; conditions: 2 mg tolterodine tartrate alone
Method: In this study, the effect of tolterodine, pilocarpine, the combination of the two, and placebo was measured in separate, yet identical, studies in a single individual.
Effect of Tolterodine—A healthy human subject was given a 2 mg dose of tolterodine tartrate and the amount of salivation was measured with time over an 8 hour period. As shown in FIGS. 6 and 7 (♦, diamond), the amount of saliva flow collected over 2 minute periods decreased after dosing and the saliva flow remained low after 3 hrs.
Effect of Dose Ratio Between Tolterodine and Pilocarpine—In this experiment the results of two separate dose ratios between tolterodine and pilocarpine were compared with the results of placebo and administration of tolterodine alone. In one experiment, 2 mg of tolterodine was administered to a healthy individual and saliva flow was measured for 8 hours. Using a similar protocol, 2 mg of tolterodine was administered to a healthy individual at t=0, followed by 5 mg of pilocarpine at t=30 min. Similarly, 2 mg of tolterodine was administered to a healthy individual at t=0, followed by 10 mg of pilocarpine at t=30 min. Finally, the results were compared with the administration of placebo (FIG. 6 (●, closed circle)). […] Therefore, an effective dose ratio for the combination […] and pilocarpine is when 2 mg of tolterodine is combined with 10 mg of pilocarpine.
Effect of Combination of Tolterodine and Pilocarpine—In a separate human study, the combination of tolterodine and pilocarpine was administered to a healthy human subject. To the subject 2 mg of tolterodine followed by 10 mg of pilocarpine were administered with various delays in the administration of pilocarpine. Saliva flow was measured as before.
In one study, 10 mg of pilocarpine was administered to the subject 15 minutes after the administration of 2 mg of tolterodine. Saliva flow was measured as before. In another study, 10 mg of pilocarpine was administered to the subject 22 minutes after the administration of 2 mg of tolterodine. Saliva flow was measured as before. […] Saliva flow was measured as before.

[5] = Time −0.17 hr (pre-dose), text gives saliva flow in g/2 min

Row | Compound | amount of saliva flow collected over 2 minute periods after dosing (in words) [1] | time at which saliva flow reached the pre-dose level [1] | Amount of Saliva Collecetd over 2 min ([2]; Time 0 hr) | Amount of Saliva Collecetd over 2 min ([2]; Time 0.5 hr) | Amount of Saliva Collecetd over 2 min ([2]; Time 1 hr) | Amount of Saliva Collecetd over 2 min ([2]; Time 1.5 hr) | Amount of Saliva Collecetd over 2 min ([2]; Time 2 hr) | Amount of Saliva Collecetd over 2 min ([2]; Time 3 hr) | Amount of Saliva Collecetd over 2 min ([2]; Time 4 hr) | Amount of Saliva Collecetd over 2 min ([2]; Time 5 hr) | Amount of Saliva Collecetd over 2 min ([2]; Time 6 hr) | Amount of Saliva Collecetd over 2 min ([2]; Time 8 hr) | Amount of Saliva Collecetd over 2 min [2, 5] | amount of saliva flow collected over 2 minute periods after dosing (in words) ([2]; FIG. 5) | time at which saliva flow reached the pre-dose level ([2]; FIG. 5) | further results
1 | CCN(CC)CC#CCOC(=O)C(O)(c1ccccc1)C1CCCCC1 (stereo not shown) [Oxybutynin, oxybutynin] | decreased | 8 h | 2.4536 | 1.8558 | 1.2308 | 1.2326 | 1.3548 | 1.1829 | 1.5868 | 2.1475 | 2.0096 | 2.3028 | 2.2208 | decreased | 8 h | time after which saliva flow started increasing again ([1]; 5 mg oxybutynin HCl alone): 3 h; time after which saliva flow started increasing again ([2]; 5 mg oxybutynin HCl alone, FIG. 5): 3 h
2 | CC[C@@H]1C(=O)OC[C@@H]1Cc1cncn1C [pilocarpine] | increased sharply | about 5 hrs | – | – | – | – | – | – | – | – | – | – | – | – | – | effect of pilocarpine on the plasma concentration of oxybutynin [3]: does not affect the plasma concentration of oxybutynin at all; time of peak saliva flow ([1]; pilocarpine HCl alone): half an hour
3 | Cc1ccc(O)c([C@H](CCN(C(C)C)C(C)C)c2ccccc2)c1 (stereo in doubt) [tolterodine, (R)-2-[3-[bis(1-methylethyl-amino]-1-phenylpropyl]-4-methylphenol [R—(R*,R*)]-2,3-dihydroxybutanedionic acid] | – | – | – | – | – | – | – | – | – | – | – | – | – | – | – | time after which saliva flow started increasing again [4]: about 4 hrs; amount of saliva flow collected over 2 minute periods after dosing (in words) ([4]; 8 hour period, FIGS. 6 and 7): decreased; time at which saliva flow reached the pre-dose levels ([4]; not completely reached at end of observation): > 8 h
4 | CC1OC2(CS1)CN1CCC2CC1 (stereo not shown) [Cevimeline, cevimeline] | – | – | 2.6273 | 2.7791 | 4.1213 | 4.6029 | 3.7314 | 3.5888 | 3.5914 | 2.6099 | 2.205 | 1.7973 | 2.4808 | increased sharply | about 6 hrs | time of peak saliva flow ([2]; 30 mg cevimeline alone, FIG. 5): close to two hours; Amount of Saliva Collecetd over 2 min ([2]; Time 2.5 hr): 3.7641; Amount of Saliva Collecetd over 2 min ([2]; Time 3.5 hr): 3.9316
